# Source: publication PMC9812923 (2022)
# Legend:
# [1] = test system: GA2 (DNA, G4) GAGGGAGGGAAAAGGGGAGGGA; assay: UV-Vis titration, SVD; conditions: 5 mM K+, 95 mM Li+; 10 mM lithium cacodylate pH 7.2, 20 °C; 1:1 model
# [2] = test system: GA1 (DNA, G4) GAGGGAGGGAGGGAAAAGGGGA; assay: UV-Vis melting, 295 nm; conditions: 100 mM K+; 10 mM lithium cacodylate pH 7.2; 2 equivalents NMM, ~4 μM DNA
# [3] = test system: GA2 (DNA, G4) GAGGGAGGGAAAAGGGGAGGGA; assay: UV-Vis melting, 295 nm; conditions: 100 mM K+; 10 mM lithium cacodylate pH 7.2; 2 equivalents NMM, ~4 μM DNA
# [4] = test system: GA3 (DNA, G4) AGGGAAAAGGGGAGGGAAAAGGGGA; assay: UV-Vis melting, 295 nm; conditions: 100 mM K+; 10 mM lithium cacodylate pH 7.2; 2 equivalents NMM, ~4 μM DNA
smiles,measurement,setting,value
CCc1c(C)c2cc3nc(cc4nc(cc5c(CC)c(C)c(cc1[nH]2)n5C)C(C)=C4CCC(=O)O)C(CCC(=O)O)=C3C,Ka,[1],1.4 ± 0.1 µM⁻¹
same,ΔTm,[2],14.6 ± 1.1 °C
same,ΔTm,[3],13.1 ± 0.8 °C
same,ΔTm,[4],7.0 ± 1.7 °C
